Data: PubChem BioAssay AID330 (DTP/NCI, 2004)
Several values for one entry are separate records, joined by “and”; a condition that tells them apart may be missing. Equal entries are not always repeated. Toxic doses and inconclusive results are not listed. How the source made its calls: active means survival T/C of 150% or more; inactive means T/C below 125% in these data.

Tested on: P388 leukemia ip, CD2F1 mice, survival T/C
Assay: NCI In Vivo Anticancer Drug Screen. Data for tumor model P388 Leukemia (intraperitoneal) in CD2F1 (CDF1) mice
Settings: endpoint: median survival time, higher = longer survival
Outline: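 Mice carrying the transplanted tumor received test compound or vehicle. Survival was recorded in each group, and the value is the treated-group measurement divided by that of the vehicle-treated control group.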

[1] = dose: 50.0 mg/kg/injection, schedule: Q01DX009 (ip), vehicle: saline with Tween-80
[2] = dose: 100.0 mg/kg/injection, schedule: Q01DX009 (ip), vehicle: saline with Tween-80
[3] = dose: 200.0 mg/kg/injection, schedule: Q01DX009 (ip), vehicle: saline with Tween-80
[4] = dose: 400.0 mg/kg/injection, schedule: Q01DX009 (ip), vehicle: saline with Tween-80
[5] = dose: 50.0 mg/kg/injection, schedule: Q01DX005 (ip), vehicle: Klucel (hydroxypropylcellulose) (HPC)
[6] = dose: 100.0 mg/kg/injection, schedule: Q01DX005 (ip), vehicle: Klucel (hydroxypropylcellulose) (HPC)
[7] = dose: 200.0 mg/kg/injection, schedule: Q01DX005 (ip), vehicle: Klucel (hydroxypropylcellulose) (HPC)
[8] = dose: 50.0 mg/kg/injection, schedule: Q01DX009 (ip), vehicle: Klucel (hydroxypropylcellulose) (HPC)
[9] = dose: 100.0 mg/kg/injection, schedule: Q01DX009 (ip), vehicle: Klucel (hydroxypropylcellulose) (HPC)
[10] = dose: 200.0 mg/kg/injection, schedule: Q01DX009 (ip), vehicle: Klucel (hydroxypropylcellulose) (HPC)
[11] = dose: 50.0 mg/kg/injection, schedule: Q01DX005 (ip), vehicle: saline with Tween-80
[12] = dose: 100.0 mg/kg/injection, schedule: Q01DX005 (ip), vehicle: saline with Tween-80
[13] = dose: 200.0 mg/kg/injection, schedule: Q01DX005 (ip), vehicle: saline with Tween-80
[14] = dose: 60.0 mg/kg/injection, schedule: Q01DX005 (ip), vehicle: saline with Tween-80
[15] = dose: 120.0 mg/kg/injection, schedule: Q01DX005 (ip), vehicle: saline with Tween-80
[16] = dose: 240.0 mg/kg/injection, schedule: Q01DX005 (ip), vehicle: saline with Tween-80
[17] = dose: 25.0 mg/kg/injection, schedule: Q01DX005 (ip), vehicle: saline with Tween-80
[18] = dose: 25.0 mg/kg/injection, schedule: Q01DX009 (ip), vehicle: saline with Tween-80
[19] = dose: 12.5 mg/kg/injection, schedule: Q01DX005 (ip), vehicle: saline with Tween-80

Measured: T/C

Cc1ncc([N+](=O)[O-])n1CCO
inactive: dose: 16.0 mg/kg/injection, schedule: Q01DX009 (ip), vehicle: saline with Tween-80 112 % of control | dose: 32.0 mg/kg/injection, schedule: Q01DX009 (ip), vehicle: saline with Tween-80 108 % of control | [1] 98 % of control | dose: 64.0 mg/kg/injection, schedule: Q01DX009 (ip), vehicle: saline with Tween-80 102 % of control and 108 % of control | [2] 118 % of control | dose: 128.0 mg/kg/injection, schedule: Q01DX009 (ip), vehicle: saline with Tween-80 100 % of control and 109 % of control | [3] 107 % of control | dose: 250.0 mg/kg/injection, schedule: Q01DX001 (ip), vehicle: saline with Tween-80 103 % of control | dose: 256.0 mg/kg/injection, schedule: Q01DX009 (ip), vehicle: saline with Tween-80 108 % of control | dose: 360.0 mg/kg/injection, schedule: Q01DX001 (ip), vehicle: saline with Tween-80 100 % of control and 103 % of control | [4] 111 % of control | dose: 500.0 mg/kg/injection, schedule: Q01DX001 (ip), vehicle: saline with Tween-80 103 % of control | dose: 512.0 mg/kg/injection, schedule: Q01DX009 (ip), vehicle: saline with Tween-80 100 % of control | dose: 600.0 mg/kg/injection, schedule: Q01DX001 (ip), vehicle: saline with Tween-80 100 % of control and 97 % of control | dose: 1000.0 mg/kg/injection, schedule: Q01DX001 (ip), vehicle: saline with Tween-80 102 % of control and 104 % of control and 101 % of control | dose: 2000.0 mg/kg/injection, schedule: Q01DX001 (ip), vehicle: saline with Tween-80 99 % of control

NC(=O)C(=O)c1c(-c2ccccc2)c(-c2ccccc2)c2n1CCC2
inactive: [5] 100 % of control | [6] 99 % of control | [7] 93 % of control

CCCCCCCCCCCC#CC(=O)OC
inactive: dose: 50.0 mg/kg/injection, schedule: Q01DX009 (ip), vehicle: saline 105 % of control | dose: 100.0 mg/kg/injection, schedule: Q01DX009 (ip), vehicle: saline 103 % of control | dose: 200.0 mg/kg/injection, schedule: Q01DX009 (ip), vehicle: saline 103 % of control

CCCC(=O)CC(=O)Nc1ccccc1
inactive: dose: 100.0 mg/kg/injection, schedule: Q01DX001 (ip), vehicle: saline 109 % of control | dose: 200.0 mg/kg/injection, schedule: Q01DX001 (ip), vehicle: saline 118 % of control | dose: 400.0 mg/kg/injection, schedule: Q01DX001 (ip), vehicle: saline 118 % of control

Cc1ccc(S(=O)(=O)NC(C)(COS(=O)(=O)c2ccc(C)cc2)COS(=O)(=O)c2ccc(C)cc2)cc1
inactive: [8] 95 % of control | [9] 96 % of control | [10] 96 % of control

CCN(CC)CCCC(C)Nc1cc(O)c2c(c1O)C(=O)c1ccccc1C2=O (centres undefined)
inactive: [11] 102 % of control | [12] 98 % of control | [13] 111 % of control

CC(C)=NOc1ccc([N+](=O)[O-])cc1[N+](=O)[O-]
inactive: [1] 96 % of control | [2] 108 % of control

COc1ccc(NC(=O)C(COCc2ccccc2)C(C)=O)cc1 (centres undefined)
inactive: [14] 94 % of control | [15] 91 % of control | [16] 92 % of control

O=C(CCl)Nc1cc2ccccc2oc1=O
inactive: [14] 105 % of control | [15] 109 % of control

CC(=O)N1C(=O)c2ccccc2NC1(C)c1ccncc1 (centres undefined)
inactive: dose: 25.0 mg/kg/injection, schedule: Q01DX005 (ip), vehicle: Klucel (hydroxypropylcellulose) (HPC) 100 % of control | [5] 101 % of control | [6] 107 % of control | [7] 106 % of control

CN(/N=C/c1ccccc1O)C(=O)Nc1cc(C(F)(F)F)ccc1Cl
inactive: [17] 100 % of control | [11] 100 % of control and 102 % of control | [12] 94 % of control and 96 % of control | [13] 91 % of control and 94 % of control

CCCCC(NC(=O)C(CCCC)NC(=O)OCc1ccccc1)C(=O)O (centres undefined)
inactive: [5] 108 % of control | [6] 93 % of control | [7] 95 % of control

CCOC(=O)N1Cc2cc3ccccc3nc2C1
inactive: dose: 6.25 mg/kg/injection, schedule: Q01DX009 (ip), vehicle: saline with Tween-80 107 % of control | dose: 12.5 mg/kg/injection, schedule: Q01DX009 (ip), vehicle: saline with Tween-80 101 % of control | [18] 101 % of control | [1] 108 % of control

O=C(O)C(=O)O.O=C(O)C(=O)O.[Co+2].[NH-]CCC[NH-]
inactive: dose: 12.5 mg/kg/injection, schedule: Q04DX002 (ip), vehicle: saline 99 % of control

O=C(O)/C=C\C(=O)ONCc1ccccc1
inactive: [11] 106 % of control | [12] 106 % of control | [13] 106 % of control

C/C(=N\NC(=S)NNC(=S)N1CCCc2ccccc21)c1ccccn1
inactive: dose: 100.0 mg/kg/injection, schedule: Q04DX002 (ip), vehicle: Klucel (hydroxypropylcellulose) (HPC) 113 % of control | dose: 200.0 mg/kg/injection, schedule: Q04DX002 (ip), vehicle: Klucel (hydroxypropylcellulose) (HPC) 115 % of control

O=C(OCc1ccccc1)ON1C(=O)C2C3C=CC(C3)C2C1=O (centres undefined)
inactive: [5] 115 % of control | [6] 110 % of control

O=C(Nc1c(Cl)cc(Cl)cc1Cl)ON=C1CCCCC1
inactive: [14] 96 % of control | [15] 102 % of control

O=c1cc(-c2ccccc2)ss1
inactive: dose: 100.0 mg/kg/injection, schedule: Q01DX009 (ip), vehicle: other 110 % of control | dose: 200.0 mg/kg/injection, schedule: Q01DX009 (ip), vehicle: other 110 % of control

COC1CCC(Sc2cccc[n+]2CC(C)=O)CC1OC (centres undefined)
inactive: [19] 100 % of control | [17] 99 % of control | [11] 98 % of control and 101 % of control | [12] 102 % of control

O=C(CI)NCCNc1cccc2c(S(=O)(=O)O)cccc12
inactive: [18] 102 % of control | [1] 100 % of control | [2] 110 % of control and 95 % of control

CCC1(C#N)N=C(c2ccccc2)c2ccccc2N1C(=O)OC (centres undefined)
inactive: [14] 96 % of control | [15] 98 % of control | [16] 98 % of control

CNC(=O)OCc1c(COC(=O)NC)c2n(c1-c1ccc(Cl)c(Cl)c1)CCS2(=O)=O
inactive: [17] 108 % of control | [11] 92 % of control | [12] 88 % of control | [13] 92 % of control

CCO/C=C1/N=C(Cc2ccc(Br)cc2)OC1=O
inactive: [14] 94 % of control | [15] 90 % of control

Cc1ccc(N/N=c2\c3nc4ccccc4nc2n(-c2ccccc2C)c(=S)n3-c2ccc(C)cc2)cc1
inactive: [14] 93 % of control | [15] 96 % of control

C=C(CN(C)C)C(=O)c1ccc(Oc2ccccc2)cc1
inactive: dose: 0.93 mg/kg/injection, schedule: Q01DX005 (ip), vehicle: saline 104 % of control | dose: 1.87 mg/kg/injection, schedule: Q01DX005 (ip), vehicle: saline 100 % of control | dose: 3.75 mg/kg/injection, schedule: Q01DX005 (ip), vehicle: saline 100 % of control

OCC1=CCN2CC[C@@H](O)[C@@H]12
inactive: dose: 50.0 mg/kg/injection, schedule: Q01DX005 (ip), vehicle: saline 93 % of control | dose: 100.0 mg/kg/injection, schedule: Q01DX005 (ip), vehicle: saline 107 % of control | dose: 200.0 mg/kg/injection, schedule: Q01DX005 (ip), vehicle: saline 93 % of control

C[CH2][Sn]([CH2]C)[S]CC(N)C(=O)O (centres undefined)
inactive: dose: 3.75 mg/kg/injection, schedule: Q01DX005 (ip), vehicle: Klucel (hydroxypropylcellulose) (HPC) 110 % of control | dose: 7.5 mg/kg/injection, schedule: Q01DX005 (ip), vehicle: Klucel (hydroxypropylcellulose) (HPC) 120 % of control

O=C(O)C(F)(F)F
inactive: [2] 90 % of control | [3] 95 % of control | [4] 90 % of control

CC(C)(C)c1ccc(C(=O)n2c(=S)oc3ccc(Cl)cc32)cc1
inactive: [14] 96 % of control | [15] 95 % of control | [16] 94 % of control

CCCCN(CC(O)CNc1cc(OC)cc2cccnc12)C(C)CC (centres undefined)
inactive: dose: 6.25 mg/kg/injection, schedule: Q01DX005 (ip), vehicle: saline with Tween-80 95 % of control | [19] 91 % of control | [17] 100 % of control | dose: 25.0 mg/kg/injection, schedule: Q01DX005 (ip), vehicle: saline 92 % of control

O=C(Nc1ccc(S(=O)(=O)F)cc1)c1ccc2ccccc2c1O
inactive: [8] 103 % of control | [9] 94 % of control | [10] 91 % of control
